This assay relates to IL-17A/A. Briefly: IL-17A/A HEK-Blue cell assay. The class given is cell-based. As to conditions: IL-17A/A inhibition, HEK-Blue IL-17A reporter cell line, IL17A/A 5 ng/mL. How it is done:
The HEK-Blue IL-17A reporter cell line (Fisher #NC1408637) was used for cell-based IL-17A/A inhibition assays. Cells were grown and prepared for assays according to the manufacturer's instructions. This cell line consists of HEK 293 cells that were designed to expressed IL-17RA, IL-17RC, and the Act1 adapter molecule, the combination of which, when stimulated by IL-17A/A or IL17A/F activates a NFκB promoter and drives expression of the recombinant Secreted Alkaline Phosphatase (SEAP) gene. Media from the cells is then added to a development reagent (Quanti-Blue Substrate, Fisher #NC9711613), and read at A630.
Compounds were dispensed in DMSO to an empty clear 384-well tissue culture plate in a titration ranging from 10 μM to 27 pM, with DMSO added to every well to a final concentration of 0.1%. Cells were then added to the plate (45 μL/well at a concentration of 280,000 cells/mL). IL17A/A (Genscript #Z03228) or IL17A/F (R&D Systems) was added to the plate to a final concentration of 5 ng/mL and a final well volume of 50 μL. The cells, compound, and IL-17A/A or IL17A/F were then incubated for 20 hours before media was removed for SEAP analysis. The resulting inhibition curve was then analyzed using Dotmatics' integrated 4-parameter fit screening protocol to generate IC50 values.

Setting [1] is: HEK-Blue, 20 h, SEAP read at A630, read-out: AA IC50.
The mark [2] stands for this setting: 20 hours, SEAP read at A630, read-out: AA IC50.

One may read the IC50 as the concentration at which inhibition is half-maximal.

The structures appear in SMILES notation. Read-outs that look alike come from different tables or passages of the source.

Take `O=C(N[C@H](c1cn2nc(C[C@H]3C[C@@H](C(F)(F)F)CNC3=O)c(C3CCOC3)cc2n1)C1CCC(F)(F)CC1)c1nonc1C1CC1` (single isomer, unassigned) [Compound 45]: the IC50 under setting [1] is under 0.1 µM.

Take `CCn1nccc1C(=O)N[C@H](c1cn2nc(C[C@H]3C[C@@H](C(F)(F)F)CNC3=O)c(C3CCCOC3)cc2n1)C1CCC(F)(F)CC1` (stereo partly drawn) [Compound 2]: the 50% inhibitory concentration (IC50) under setting [2] fell in the range of 0.1 to 1 µM.

As for `CCn1nccc1C(=O)N[C@H](c1cn2nc(C[C@H]3C[C@@H](C(F)(F)F)CNC3=O)c(-c3cccnc3)cc2n1)C1CCC(F)(F)CC1` [Compound 3], under setting [1], the IC50 was 0.1 to 1 µM.

On to `CCn1nccc1C(=O)N[C@H](c1cn2nc(C[C@H]3C[C@@H](C(F)(F)F)CNC3=O)c(-c3cncnc3)cc2n1)C1CCC(F)(F)CC1` [Compound 4], for which the IC50 under setting [1] lay within 0.1 to 1 µM.

In the case of `CCn1nccc1C(=O)N[C@H](c1cn2nc(C[C@H]3C[C@@H](C(F)(F)F)CNC3=O)c(C3COC3)cc2n1)C1CCC(F)(F)CC1` [Compound 5], under setting [1], the IC50 is under 0.1 µM.

Regarding `CCn1nccc1C(=O)N[C@H](c1cn2nc(C[C@H]3C[C@@H](C(F)(F)F)CNC3=O)c(C3CCOC3)cc2n1)C1CCC(F)(F)CC1` (stereo partly drawn) [Compound 6], the IC50 under setting [1] was under 0.1 µM.

Take `CCn1nccc1C(=O)N[C@H](c1cn2nc(C[C@H]3C[C@@H](C(F)(F)F)CNC3=O)c(C3CCCOC3)cc2n1)C1CCC(F)(F)CC1` (stereo partly drawn) [Compound 7]: the IC50 under setting [1] lay within 0.1 to 1 µM.

As to `CCn1nccc1C(=O)N[C@H](c1cn2nc(C[C@@H]3C[C@@H](C(F)(F)F)CNC3=O)c(-c3cccnc3)cc2n1)C1CCC(F)(F)CC1` [Compound 8], under setting [1], the IC50 lay in the range of 0.1 to 1 µM.

Regarding `CCn1nccc1C(=O)N[C@H](c1cn2nc(C[C@@H]3C[C@@H](C(F)(F)F)CNC3=O)c(-c3cncnc3)cc2n1)C1CCC(F)(F)CC1` [Compound 9], the IC50 under setting [1] was over 1 µM.

For `CCn1nccc1C(=O)N[C@H](c1cn2nc(C[C@@H]3C[C@@H](C(F)(F)F)CNC3=O)c(C3CCOC3)cc2n1)C1CCC(F)(F)CC1` (stereo partly drawn) [Compound 10], the IC50 under setting [1] was in the range of 0.1 to 1 µM.

`CCn1nccc1C(=O)N[C@H](c1cn2nc(C[C@@H]3C[C@@H](C(F)(F)F)CNC3=O)c(C3CCOC3)cc2n1)C1CCC(F)(F)CC1` (stereo partly drawn) [Compound 11]: the IC50 under setting [2] was 0.1 to 1 µM.

Turning to `CCn1nccc1C(=O)N[C@H](c1cn2nc(C[C@H]3C[C@@H](C(F)(F)F)CNC3=O)c(C3CCCOC3)cc2n1)C1CCC(F)(F)CC1` (stereo partly drawn) [Compound 12], the IC50 under setting [2] was under 0.1 µM.

In the case of `CCn1nccc1C(=O)N[C@H](c1cn2nc(C[C@H]3C[C@@H](C(F)(F)F)CNC3=O)c(C3CCCOC3)cc2n1)C1CCC(F)(F)CC1` (stereo partly drawn) [Compound 13], under setting [2], the IC50 is under 0.1 µM.

Consider `CCn1nccc1C(=O)N[C@H](c1cn2nc(CC3C[C@@H](C(F)(F)F)CNC3=O)c(N3CCOCC3)cc2n1)C1CCC(F)(F)CC1` (stereo partly drawn) [Compound 14], for which the IC50 under setting [1] was under 0.1 µM.

Turning to `O=C(N[C@H](c1cn2nc(CC3C[C@@H](C(F)(F)F)CNC3=O)c(N3CCOCC3)cc2n1)C1CCC(F)(F)CC1)c1nonc1C1CC1` (stereo partly drawn) [Compound 15], the IC50 under setting [1] is under 0.1 µM.

`O=C(N[C@H](c1cn2nc(C[C@H]3C[C@@H](C(F)(F)F)CNC3=O)c(N3CCOCC3)cc2n1)C1CCC(F)(F)CC1)c1nonc1C1CC1` [Compound 16]: under setting [1], the 50% inhibitory concentration (IC50) is under 0.1 µM.

On to `O=C(N[C@H](c1cn2nc(C[C@@H]3C[C@@H](C(F)(F)F)CNC3=O)c(N3CCOCC3)cc2n1)C1CCC(F)(F)CC1)c1nonc1C1CC1` [Compound 17], for which the IC50 under setting [1] lay in the range of 0.1 to 1 µM.

Turning to `CCn1nccc1C(=O)N[C@H](c1cn2nc(C[C@H]3C[C@@H](C(F)(F)F)CNC3=O)c(N3CCCCC3)cc2n1)C1CCC(F)(F)CC1` [Compound 18], under setting [1], the IC50 was under 0.1 µM.

For the molecule `CCn1nccc1C(=O)N[C@H](c1cn2nc(C[C@H]3C[C@@H](C(F)(F)F)CNC3=O)c(N3CCC(F)(F)CC3)cc2n1)C1CCC(F)(F)CC1` [Compound 19], the IC50 under setting [1] is under 0.1 µM.

On to `CCn1nccc1C(=O)N[C@H](c1cn2nc(C[C@H]3C[C@@H](C(F)(F)F)CNC3=O)c(N3CCN(C)CC3)cc2n1)C1CCC(F)(F)CC1` [Compound 20], for which the IC50 under setting [1] was under 0.1 µM.

As to `CCn1nccc1C(=O)N[C@H](c1cn2nc(C[C@H]3C[C@@H](C(F)(F)F)CNC3=O)c(C3CCOCC3)cc2n1)C1CCC(F)(F)CC1` [Compound 21, N—((S)-(4,4-difluorocyclohexyl)(6-(((3R,5R)-2-oxo-5-(trifluoromethyl)piperidin-3-yl)methyl)-7-(tetrahydro-2H-pyran-4-yl)imidazo[1,2-b]pyridazin-2-yl)methyl)-1-ethyl-1H-pyrazole-5-carboxamide], the IC50 under setting [1] was under 0.1 µM.

On to `CCn1nccc1C(=O)N[C@H](c1cn2nc(C[C@H]3C[C@@H](C(F)(F)F)CNC3=O)c(N3CCCC3)cc2n1)C1CCC(F)(F)CC1` [Compound 22], for which, under setting [1], the IC50 is under 0.1 µM.

Take `CCn1nccc1C(=O)N[C@H](c1cn2nc(C[C@H]3C[C@@H](C(F)(F)F)CNC3=O)c(N3CCC3)cc2n1)C1CCC(F)(F)CC1` [Compound 23]: the IC50 under setting [1] was under 0.1 µM.

Take `CCn1nccc1C(=O)N[C@H](c1cn2nc(C[C@@H]3C[C@@H](C(F)(F)F)CNC3=O)c(N3CCC3)cc2n1)C1CCC(F)(F)CC1` [Compound 24]: the half-maximal inhibitory concentration (IC50) under setting [1] was over 1 µM.

As for `CCn1nccc1C(=O)N[C@H](c1cn2nc(C[C@H]3C[C@@H](C(F)(F)F)CNC3=O)c(N3CCOCC3)cc2n1)[C@H]1CCCC(F)(F)C1` [Compound 25], the 50% inhibitory concentration (IC50) under setting [1] is under 0.1 µM.

As to `CCn1nccc1C(=O)N[C@H](c1cn2nc(C[C@H]3C[C@@H](C(F)(F)F)CNC3=O)c(N3CCOCC3)cc2n1)[C@@H]1CCCC(F)(F)C1` [Compound 26], the IC50 under setting [1] was under 0.1 µM.

As for `CC(C)n1nccc1C(=O)N[C@H](c1cn2nc(C[C@H]3C[C@@H](C(F)(F)F)CNC3=O)c(N3CCOCC3)cc2n1)[C@H]1CCCC(F)(F)C1` [Compound 27], the IC50 under setting [1] was under 0.1 µM.

Regarding `CC(C)n1nccc1C(=O)N[C@H](c1cn2nc(C[C@H]3C[C@@H](C(F)(F)F)CNC3=O)c(N3CCOCC3)cc2n1)[C@@H]1CCCC(F)(F)C1` [Compound 28], the IC50 under setting [1] is under 0.1 µM.

As for `O=C(N[C@H](c1cn2nc(C[C@H]3C[C@@H](C(F)(F)F)CNC3=O)c(N3CCOCC3)cc2n1)[C@H]1CCCC(F)(F)C1)c1nonc1C1CC1` [Compound 29], the IC50 under setting [1] was under 0.1 µM.

Regarding `O=C(N[C@H](c1cn2nc(C[C@H]3C[C@@H](C(F)(F)F)CNC3=O)c(N3CCOCC3)cc2n1)[C@@H]1CCCC(F)(F)C1)c1nonc1C1CC1` [Compound 30], under setting [1], the IC50 is under 0.1 µM.

Turning to `CCn1nccc1C(=O)N[C@H](c1cn2nc(C[C@H]3C[C@@H](C(F)(F)F)CNC3=O)c(N3CCOCC3C)cc2n1)C1CCC(F)(F)CC1` (stereo partly drawn) [Compound 32], the IC50 under setting [1] was 0.1 to 1 µM.

In the case of `CCn1nccc1C(=O)N[C@H](c1cn2nc(C[C@H]3C[C@@H](C(F)(F)F)CNC3=O)c(N3CCO[C@H](C)C3)cc2n1)C1CCC(F)(F)CC1` [Compound 33, N—((S)-(4,4-difluorocyclohexyl)(7-((R)-2-methylmorpholino)-6-(((3R,5R)-2-oxo-5-(trifluoromethyl)piperidin-3-yl)methyl)imidazo[1,2-b]pyridazin-2-yl)methyl)-1-ethyl-1H-pyrazole-5-carboxamide], the half-inhibitory concentration (IC50) under setting [1] is under 0.1 µM.

`CCn1nccc1C(=O)N[C@H](c1cn2nc(C[C@H]3C[C@@H](C(F)(F)F)CNC3=O)c(N3CCOC(C)C3)cc2n1)C1CCC(F)(F)CC1` (stereo partly drawn) [Compound 34]: the IC50 under setting [2] is under 0.1 µM.

For `CCn1nccc1C(=O)N[C@H](c1cn2nc(C[C@H]3C[C@@H](C(F)(F)F)CNC3=O)c(N3CC4CC(C3)O4)cc2n1)C1CCC(F)(F)CC1` [Compound 35], the IC50 under setting [1] was under 0.1 µM.

As to `CCn1nccc1C(=O)N[C@H](c1cn2nc(C[C@H]3C[C@@H](C(F)(F)F)CNC3=O)c(C3CC3)cc2n1)C1CCC(F)(F)CC1` [Compound 36], the IC50 under setting [1] was under 0.1 µM.

Regarding `CCn1nccc1C(=O)N[C@H](c1cn2nc(C[C@H]3C[C@@H](C(F)(F)F)CNC3=O)c(N3CCOCC3)cc2n1)C1CCC(F)(F)CC1` [Compound 37], the IC50 under setting [1] was under 0.1 µM.

As to `O=C(N[C@H](c1cn2nc(C[C@H]3C[C@H](C(F)(F)F)CNC3=O)c(N3CCOCC3)cc2n1)C1CCC(F)(F)CC1)c1nonc1C1CC1` [Compound 38], under setting [1], the IC50 is under 0.1 µM.

Turning to `O=C(N[C@H](c1cn2nc(C[C@@H]3C[C@H](C(F)(F)F)CNC3=O)c(N3CCOCC3)cc2n1)C1CCC(F)(F)CC1)c1nonc1C1CC1` [Compound 39], the half-inhibitory concentration (IC50) under setting [1] is over 1 µM.

Take `O=C(N[C@H](c1cn2nc(C[C@H]3C[C@@H](C(F)(F)F)CNC3=O)c(N3CC(F)(F)C3)cc2n1)C1CCC(F)(F)CC1)c1nonc1C1CC1` [Compound 40]: the IC50 under setting [1] was in the range of 0.1 to 1 µM.

For the molecule `CCn1nccc1C(=O)N[C@H](c1cn2nc(C[C@H]3C[C@@H](C(F)(F)F)CNC3=O)c(N3CC(F)(F)C3)cc2n1)C1CCC(F)(F)CC1` [Compound 41], the IC50 under setting [1] fell in the range of 0.1 to 1 µM.

With `O=C(N[C@H](c1cn2nc(C[C@H]3C[C@@H](C(F)(F)F)CNC3=O)c(N3CC4(COC4)C3)cc2n1)C1CCC(F)(F)CC1)c1nonc1C1CC1` [Compound 42], the IC50 under setting [1] was 0.1 to 1 µM.

In the case of `CCn1nccc1C(=O)N[C@H](c1cn2nc(C[C@H]3C[C@@H](C(F)(F)F)CNC3=O)c(N3CC4(COC4)C3)cc2n1)C1CCC(F)(F)CC1` [Compound 43], the IC50 under setting [1] lay in the range of 0.1 to 1 µM.

(Values after patent US20260265259A1, “SUBSTITUTED 6-IMIDAZOPYRIDAZINE IL-17A MODULATORS AND USES THEREOF” (DICE ALPHA, INC., priority 2023, published 2026).)
